Source: patent publication US20090286713A9, “Collagen Receptor I-Domain Binding Modulators” (Biotie Therapies Corporation, priority 2005, published 2009)

What was measured:
α2 I-domain = target: T1, α2 I-domain (Homo sapiens, UniProt P17301); assay: Solid-phase binding assay, α2 I-domain binding to type I collagen
T1 construct: corresponded to amino acids 124-339 of the whole α2 integrin; made in house; host or cells: E. coli BL21 (pGEX-2T)
T1 sequence (P17301 153-368): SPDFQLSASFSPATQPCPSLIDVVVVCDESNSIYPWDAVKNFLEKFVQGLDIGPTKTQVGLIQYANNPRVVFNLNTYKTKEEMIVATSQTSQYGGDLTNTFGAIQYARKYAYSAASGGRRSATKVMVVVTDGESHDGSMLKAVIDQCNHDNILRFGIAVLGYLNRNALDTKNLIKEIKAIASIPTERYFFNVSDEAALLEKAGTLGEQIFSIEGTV
Experimental: (§1) Solid-phase binding assay for α1-domains—The coating of a 96-well high binding microtiter plate (Nune) was done by exposure to 0.1 ml of PBS containing 5 μg/cm2 (15 μg/ml) collagens or 20 μg/ml triple-helical peptides overnight at +4° C. Blank wells were coated with 1:1 solution of 0.1 ml Delfia® Diluent II (Wallac) and PBS. Residual protein absorption sites on all wells were blocked with 1:1 solution of 0.1 ml Delfia® Diluent II (Wallac) and PBS. Recombinant proteins (αI-GST) were added to the coated wells at a desired concentration in Delfia® Assay Buffer and incubated for 1 h at room temperature. Europium-labelled anti-GST antibody (Wallac) was then added (typically 1:1000), and the mixture was incubated for 1 h at room temperature. All incubations mentioned above were done in the presence of 2 mM MgCl2. Delfia® enhancement solution (Wallac) was added to each well and the Europium signal was measured by time-resolved fluorometry (Victor2 multilabel counter, Wallac). At least three parallel wells were analyzed. In some cases some what modified solid-phase assay was used and it was performed according Tulla et al, 2001. It uses anti-GST and Europium-labelled protein G instead of Europium-labelled anti-GST antibody.
The tetracyclic Streptomyces compounds synthesised in Example 1, where screened for inhibition of collagen binding to α1 and α2 I-domains, using the α I-domain assay described in Example 4. […] L3015 could inhibit the binding of both α1I and α2 I-domains to type I and type IV collagen (FIG. 6B).
Based on the utilization of 3D model other compounds from the polyketide family were tested. The compounds were tested in the europium-labelled anti-GST assay described in Example 4. Tetracyclic polyketides L3007, L3008, and L3009 could inhibit α2 I-domain binding to type I collagen (FIG. 8A).

α11 I-domain = target: T2, α11 I-domain (Homo sapiens, UniProt Q9UKX5); assay: Solid-phase binding assay, α11 I-domain binding to type I collagen; settings: at 0.05 mM concentration; FIG. 9
T2 construct: two extra residues before α11I, residues 159-354; made in house; host or cells: E. coli BL21
T2 sequence (Q9UKX5 159-354): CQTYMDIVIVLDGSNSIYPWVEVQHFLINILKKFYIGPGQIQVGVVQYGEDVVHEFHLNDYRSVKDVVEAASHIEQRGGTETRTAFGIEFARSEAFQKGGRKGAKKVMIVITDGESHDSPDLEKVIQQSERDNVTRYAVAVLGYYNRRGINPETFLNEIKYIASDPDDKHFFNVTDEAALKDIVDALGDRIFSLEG
Experimental: as §1
(§2) The inhibitory effect of L3009 was tested with all collagen binding integrin α I-domains, α1I, α2I, α10I and α11I as described in Example 4. […]

α10 I-domain = target: T3, α10 I-domain (Homo sapiens, UniProt O75578); assay: Solid-phase binding assay, α10 I-domain binding to type I collagen; settings: at 0.05 mM concentration; FIG. 9
T3 construct: corresponding to amino acids 141-337 of the whole α10 integrin; made in house; host or cells: E. coli BL21 (pGEX-2T)
T3 sequence (O75578 163-359): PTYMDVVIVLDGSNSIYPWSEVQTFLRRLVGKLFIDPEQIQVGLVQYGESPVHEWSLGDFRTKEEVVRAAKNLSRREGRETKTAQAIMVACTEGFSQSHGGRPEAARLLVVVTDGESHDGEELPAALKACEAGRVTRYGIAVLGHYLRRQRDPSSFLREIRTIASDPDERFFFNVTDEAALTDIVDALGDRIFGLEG
Experimental: as §1, §2

- inhibition of α2 I-domain binding to type I collagen (in words) (α2 I-domain; FIG. 6B, 7A, 8A): could inhibit
- inhibition of collagen I binding of α2I (α2 I-domain; at 0.05 mM concentration, FIG. 9): could inhibit
- inhibition of collagen I binding of α11I (α11 I-domain): could inhibit
- inhibition of collagen I binding of α10I (α10 I-domain): could inhibit
SMILES: COC(=O)c1c(C(C)C)cc(O)c2c(O)c3c(c(O)c12)C(=O)c1cccc(O)c1C3=O [Compound L3009, methyl 4,5,7,12-tetrahydroxy-2-methylethyl)-6,11-dioxonaphthacenecarboxylate]
